Test results as given in the NIST ThermoML archive (doi:10.1021/je200352g).
± gives the expanded uncertainty stated by the source.

Conditions: 298 K; 101.33 kPa; Crystal; X-ray diffraction

CCCCCCCC[NH3+].O=P([O-])(O)O [1-octanaminium dihydrogen phosphate]
mass density: 1282 ± 2 kg/m3

CCCCCCCCC[NH3+].O=P([O-])(O)O [1-nonylammonium dihydrogen phosphate]
mass density: 1268 ± 2 kg/m3
